Source: US11166954B2, “Dihydropyrimidine compound and preparation method and use thereof” (SICHUAN KELUN-BIOTECH BIOPHARMACEUTICAL CO., LTD., priority 2016, dated 2021)

Assays:
CYP450 isoform 3A4 = experiment: CYP3A4 induction test (HepG2 C3A/pCYP3A4-Luc, C8 cells, luciferase); format: cell-based; details: at a concentration of 10 μM
Procedure: (§2) A test tube of HepG2 C3A/pCYP3A4-Luc, C8 cells was taken out of a liquid nitrogen tank, the cells were recovered in a sterile water bath at 37° C.; and the test tube was gently shaken until ice completely melted. The recovered cells were transferred to a 15 mL sterile centrifuge tube, and 5-10 mL pre-heated basal cell culture medium at 37° C. was added; the cells were naturally settled for 2 minutes and centrifuged (1000 rpm) for 8 minutes. The supernatant was discarded, and the cells were re-suspended with 10 mL pre-heated cell culture medium. The cell suspension was transferred to a 10 cm cell-culture dish and incubated in a 5% CO2 incubator at 37° C. The original cell culture medium was replaced with a selective cell culture medium after 24 hours. The cells were digested after growing in 80%-90% of the culture dish, and then transferred to a 15 mL sterile centrifuge tube. Centrifugation was performed at 1000 rpm for 8 minutes, and the cells were collected. The supernatant was discarded, and the cells were re-suspended with 3 mL pre-heated complete medium. […] The supernatant was discarded, the cells were re-suspended and counted, and the suspension was diluted to 4×10^5 cells per mL. […] The fluorescence signal was measured on a plate reader. A concentration curve of the tested compounds was plotted by using software Prism 5, and the EC50 values were calculated.

CYP3A4 = experiment: as above; format: cell-based; details: human, HepG2 C3A/pCYP3A4-Luc, C8 cells; CYP3A4 induction, 72 hours
Procedure: as §2

[1] = target: T1, hERG potassium ion channel (Homo sapiens, UniProt Q12809); experiment: Predictor hERG Fluorescence Polarization Assay; format: binding; details: hERG fluorescence polarization
T1 construct: purchased
Text: In cardiac muscle cells, hERG (human Ether-a-go-go Related Gene) coded potassium channel mediates delayed rectifier potassium currents (IKr). IKr inhibition is the most important mechanism of QT interval prolongation caused by a drug.
Employing the Predictor™ hERG Fluorescence Polarization Assay, the effect of the compounds on a hERG potassium ion channel was detected.

hepatitis B virus = experiment: Mouse HBV model via tail vein hydrodynamic injection (HDI); format: in vivo, female BALB/c mice
Procedure: The in vivo inhibitory effect on hepatitis B virus of the compound of the present invention was evaluated by employing a mouse HBV model via tail vein hydrodynamic injection (HDI).
A suspension of compound 10-227 of the present invention was prepared with a 0.5% MC solution as the solvent. Female BALB/c mice were injected with pAAV2-HBV 1.3mer (type D) plasmid DNA via tail vein hydrodynamic injection, and then divided into the control group, test group 1 and test group 2 (5 mice in each group). Oral gavage administration was initiated one day later. The control group was given the 0.5% MC solution each time. The test groups 1 and 2 each time were given compound 10-227 (in the form of the suspension prepared above) at a dosage of 1 mg/kg and 3 mg/kg, respectively. The administration was continued for 7 days, twice a day, at an administration interval of 10 hours or 14 hours. Mouse plasma was collected at different time points (e.g., 1 day, 3 days, 5 days or 7 days after the HDI), and the HBV DNA levels in the plasma samples were detected by the RT-qPCR method.
In addition, throughout the entire in vivo test, the weight and body condition of the mice were measured and observed everyday according to an IACUC (Institutional Animal Care and Use Committee) protocol.

[2] = In vivo pharmacokinetics (PK) in cynomolgus macaques; set-up: species or system male cynomolgus macaques; details: cynomolgus macaque
Procedure: (§1) The test compounds were administrated to male cynomolgus macaques by intravenous (iv) and by gavage (po), respectively, the doses of the iv and po administration were respectively 0.5 mg/kg and 2.5 mg/kg, the solvent system for iv administration was 5% DMSO:5% solutol:90% physiological saline, and the solvent system for po administration was 0.5% MC. Blood was collected at multiple time points after iv administration and po administration for the PK study. Plasma samples were subjected to protein precipitation, followed by LC-MS/MS analysis. The mass spectrometer was API 5500, the liquid chromatograph was a Waters ACQUITY I CLASS system; the chromatographic column was an Agela ASB C18 column (2.1 mm×50 mm, 1.9 μm); mobile phase A was water+0.1% formic acid, and phase B was acetonitrile; the flow rate was 0.4 mL/min, and the column temperature was 40° C. The ion source was an ESI source in a positive ion mode, and the scanning manner is multiple reaction monitoring (MRM).

[3] = In vivo pharmacokinetics (PK) in Beagle dogs; set-up: species or system male Beagle dogs; details: Beagle dog
Procedure: as §1, with “Beagle dogs” for “cynomolgus macaques”, “5500, and” for “5500,”

[4] = Cytotoxicity detection (CellTiter-Glo); format: cell-based; details: human, HepG2.2.15 cells, highest concentration 150 μM
Procedure: The test compounds were diluted to 30 mM with DMSO, with 30 mM as the highest concentration, the compounds were subjected to three-fold serial dilution to various concentrations. 0.2 μL of the compounds at various concentrations were added to a 384-well plate, HepG2.2.15 cells having a concentration of 2000 cells per 50 μL were added to each well, and the highest concentration of the test compounds was 150 μM. 1 μL of DMSO was added to corresponding wells for control. The plate was incubated in a 5% CO2 incubator at 37° C. for 4 days; and 50 μL of CellTiter-Glo was added to each well after 4 days. The plate was read for detection, and a half cytotoxic concentration (CC50) was calculated.

[5] = system: hepatitis type B virus (HBV); experiment: Inhibition of HBV DNA replication in HepG2.2.15 cells; format: cell-based; details: HepG2.2.15, HBV DNA replication
Procedure: The inhibitory effect of the compounds of the present invention on hepatitis type B virus (HBV) was tested. Cytotoxicity and effects on nucleic acid (DNA) replication level of the virus (HBV) of the compounds of the present invention were tested at a virus-cell level.
HepG2.2.15 cells in the logarithmic growth phase were plated in a 96-well plate at a cell concentration of 40 cells per μL. The cells were incubated in a 5% CO2 incubator at 37° C. for 3 days; and the culture medium was replaced with a new one ([…]) before adding compounds. The concentration of the stock solution of each Example compound is 200 μM.

[6] = male, cynomolgus monkey, 0.5 mg/kg, iv, 0.50 mg/kg, plasma
[7] = male, cynomolgus monkey, 2.5 mg/kg, po, 2.50 mg/kg, plasma
[8] = male, 0.5 mg/kg, iv, 0.50 mg/kg, plasma
[9] = male, 2.5 mg/kg, po, 2.50 mg/kg, plasma

T1 sequence (Q12809 whole entry): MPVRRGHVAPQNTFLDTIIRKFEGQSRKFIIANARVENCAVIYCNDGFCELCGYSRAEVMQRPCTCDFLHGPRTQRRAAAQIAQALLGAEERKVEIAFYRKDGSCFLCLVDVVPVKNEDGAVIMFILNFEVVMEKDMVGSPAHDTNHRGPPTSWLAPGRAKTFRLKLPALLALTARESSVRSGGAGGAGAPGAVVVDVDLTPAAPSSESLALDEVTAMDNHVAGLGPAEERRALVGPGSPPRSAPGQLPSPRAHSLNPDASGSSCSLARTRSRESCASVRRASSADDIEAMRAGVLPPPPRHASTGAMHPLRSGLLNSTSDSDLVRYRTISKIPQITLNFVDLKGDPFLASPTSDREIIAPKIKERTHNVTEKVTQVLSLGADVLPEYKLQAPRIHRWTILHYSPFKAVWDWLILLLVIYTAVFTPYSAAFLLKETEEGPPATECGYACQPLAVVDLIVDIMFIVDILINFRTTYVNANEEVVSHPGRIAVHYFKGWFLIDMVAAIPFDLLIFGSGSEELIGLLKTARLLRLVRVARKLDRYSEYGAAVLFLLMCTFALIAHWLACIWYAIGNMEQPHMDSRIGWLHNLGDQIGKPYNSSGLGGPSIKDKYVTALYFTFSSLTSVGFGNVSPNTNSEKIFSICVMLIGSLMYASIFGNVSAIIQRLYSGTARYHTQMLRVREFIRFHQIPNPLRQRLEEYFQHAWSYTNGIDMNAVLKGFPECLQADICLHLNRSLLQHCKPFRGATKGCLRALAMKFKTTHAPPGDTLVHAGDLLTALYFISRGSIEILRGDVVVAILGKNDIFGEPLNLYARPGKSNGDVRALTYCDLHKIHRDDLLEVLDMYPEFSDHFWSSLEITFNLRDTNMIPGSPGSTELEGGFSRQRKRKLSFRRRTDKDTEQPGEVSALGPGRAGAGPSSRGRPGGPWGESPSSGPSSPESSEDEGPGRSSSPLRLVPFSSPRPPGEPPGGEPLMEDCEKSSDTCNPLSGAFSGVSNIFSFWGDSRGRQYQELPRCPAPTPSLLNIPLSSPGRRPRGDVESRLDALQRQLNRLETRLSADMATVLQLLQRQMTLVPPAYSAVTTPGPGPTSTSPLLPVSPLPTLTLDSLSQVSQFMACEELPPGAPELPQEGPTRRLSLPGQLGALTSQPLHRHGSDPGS

COC(=O)C1=C(CN2CCO[C@H](/C=C/C(=O)O)C2)NC(c2nccs2)=N[C@H]1c1ccc(F)cc1Cl [10-227 of Example 27, (E)-3-((R)-4-(((R)-6-(2-chloro-4-fluorophenyl)-5-(methoxycarbonyl)-2-(thiazol-2-yl)-3,6-dihydropyrimidin-4-yl)methyl)morpholin-2-yl)acrylic Acid]
inductive effect on CYP450 isoform 3A4 relative to rifampicin (CYP450 isoform 3A4): about 29%
EC50 at 72 h (CYP3A4): 123 µM
IC50 [1]: > 10 µM
HBV DNA level in plasma (hepatitis B virus; Test group 1, 1 mg/kg oral gavage twice a day, 1 day after HDI): 1.95 ± 0.09 log (HBV DNA copies/μl)
HBV DNA level in plasma (hepatitis B virus; Test group 1, 1 mg/kg oral gavage twice a day, 3 days after HDI): 2.28 ± 0.17 log (HBV DNA copies/μl)
HBV DNA level in plasma (hepatitis B virus; Test group 1, 1 mg/kg oral gavage twice a day, 5 days after HDI): 2.77 ± 0.11 log (HBV DNA copies/μl)
HBV DNA level in plasma (hepatitis B virus; Test group 1, 1 mg/kg oral gavage twice a day, 7 days after HDI): 2.77 ± 0.14 log (HBV DNA copies/μl)
HBV DNA level in plasma (hepatitis B virus; Test group 2, 3 mg/kg oral gavage twice a day, 1 day after HDI): 1.99 ± 0.09 log (HBV DNA copies/μl)
HBV DNA level in plasma (hepatitis B virus; Test group 2, 3 mg/kg oral gavage twice a day, 3 days after HDI): 1.95 ± 0.15 log (HBV DNA copies/μl)
HBV DNA level in plasma (hepatitis B virus; Test group 2, 3 mg/kg oral gavage twice a day, 5 days after HDI): 1.57 ± 0.08 log (HBV DNA copies/μl)
HBV DNA level in plasma (hepatitis B virus; Test group 2, 3 mg/kg oral gavage twice a day, 7 days after HDI): 1.42 ± 0.31 log (HBV DNA copies/μl)
variation in body weight (hepatitis B virus; mice, during 7 days of administration, 1 and 3 mg/kg): < 10%
amount of exposure in plasma relative to control compound 3 ([2]; by gavage, 2.50 mg/kg): about 21 times
blood-drug concentration relative to control compound 3 ([2]; by gavage, 2.50 mg/kg): about 33 times
AUC(0-inf) [2, 6]: 2460 ng·h/mL
AUC(0-t) [2, 6]: 2440 ng·h/mL
Cmax [2, 6]: 1670 ng/mL
AUC(0-inf) [2, 7]: 4570 ng·h/mL
AUC(0-t) [2, 7]: 4420 ng·h/mL
Cmax [2, 7]: 1070 ng/mL
bioavailability ([2]; male, cynomolgus monkey, plasma, po, 2.5 mg/kg, by gavage, 2.50 mg/kg, read-out: bioavailability (F)): 37.2%
amount of exposure in plasma relative to control compound 3 ([3]; by gavage, 2.50 mg/kg): about 14 times
blood-drug concentration relative to control compound 3 ([3]; by gavage, 2.50 mg/kg): about 6 times
AUC(0-inf) [3, 8]: 8750 ng·h/mL
AUC(0-t) [3, 8]: 8690 ng·h/mL
Cmax [3, 8]: 2310 ng/mL
AUC(0-inf) [3, 9]: 33200 ng·h/mL
AUC(0-t) [3, 9]: 32900 ng·h/mL
Cmax [3, 9]: 7200 ng/mL
bioavailability ([3]; male, plasma, po, 2.5 mg/kg, by gavage, 2.50 mg/kg, read-out: bioavailability (F)): 75.9%
CC50 at 4 days [4]: > 150 µM
EC50 [5]: 10 nM
